Substitutions are numbered along the chain they refer to.
Key:
Test in all cases: Relative rates of hydrolysis of poly-, oligosaccharides and aryl-glycosides
Assay type in all cases: biochemical
[1] = molecular target: T1, HvExoI W434A mutant (Hordeum vulgare, UniProt Q9XEI3, W459A); settings: substance is the substrate, nd = activity not detected
T1 sequence (Q9XEI3 26-630 W459A): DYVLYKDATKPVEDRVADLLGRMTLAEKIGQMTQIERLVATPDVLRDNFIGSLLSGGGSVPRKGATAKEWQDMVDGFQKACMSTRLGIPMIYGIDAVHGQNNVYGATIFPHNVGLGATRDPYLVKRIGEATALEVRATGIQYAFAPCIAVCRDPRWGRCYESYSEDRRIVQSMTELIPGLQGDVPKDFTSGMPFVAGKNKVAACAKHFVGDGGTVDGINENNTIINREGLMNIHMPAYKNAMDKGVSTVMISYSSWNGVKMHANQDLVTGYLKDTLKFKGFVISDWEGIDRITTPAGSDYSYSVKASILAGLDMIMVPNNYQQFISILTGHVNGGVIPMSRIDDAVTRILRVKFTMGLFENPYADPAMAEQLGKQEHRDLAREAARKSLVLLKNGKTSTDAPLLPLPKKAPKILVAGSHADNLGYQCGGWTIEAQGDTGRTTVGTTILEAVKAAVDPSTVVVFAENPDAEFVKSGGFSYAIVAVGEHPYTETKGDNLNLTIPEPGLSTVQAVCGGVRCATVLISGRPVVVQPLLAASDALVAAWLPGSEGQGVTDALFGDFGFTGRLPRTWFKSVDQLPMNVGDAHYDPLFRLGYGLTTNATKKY
Procedure, shortened: (§1)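 Steady-state apparent constants are derived from proportionally weighted nonlinear regression of Michaelis-Menten data. Rates of hydrolysis of polysaccharides, oligosaccharides and aryl-glucosides are relative values obtained with 50 pmoles of near-homogeneous HvExoI. The pH and temperature dependence was tested on 0.2% (w/v) 4NP-Glc.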

[2] = molecular target: T2, HvExoI W434H mutant (Hordeum vulgare, UniProt Q9XEI3, W459H); settings: substance is the substrate
T2 sequence (Q9XEI3 26-630 W459H): T1 sequence (Q9XEI3 26-630 W459A) with A434H
Procedure, shortened: as §1

[3] = molecular target: T3, HvExoI W286F mutant (Hordeum vulgare, UniProt Q9XEI3, W311F); settings: substance is the substrate, nd = activity not detected
T3 sequence (Q9XEI3 26-630 W311F): T1 sequence (Q9XEI3 26-630 W459A) with W286F, A434W
Procedure, shortened: as §1

[4] = molecular target: T4, HvExoI W434F mutant (Hordeum vulgare, UniProt Q9XEI3, W459F); settings: substance is the substrate, nd = activity not detected
T4 sequence (Q9XEI3 26-630 W459F): T1 sequence (Q9XEI3 26-630 W459A) with A434F
Procedure, shortened: as §1

Compound | Activity (relative rate of hydrolysis) [1] | Activity (relative rate of hydrolysis) [2] | Activity (relative rate of hydrolysis) [3] | Activity (relative rate of hydrolysis) [4]
OC[C@H]1O[C@@H](O[C@@H]2[C@@H](O)[C@H](O[C@@H]3[C@@H](O)[C@H](O[C@H]4[C@H](O)[C@@H](CO)OC(O)[C@@H]4O)O[C@H](CO)[C@H]3O)O[C@H](CO)[C@H]2O)[C@H](O)[C@@H](O)[C@@H]1O (stereo partly shown) [Laminaritetraose] | 1.1 ± 0.1 μmole/min per mg protein | 1.4 ± 0.1 μmole/min per mg protein | 1.1 ± 0.1 μmole/min per mg protein | 15.0 ± 1.5 μmole/min per mg protein
OC[C@H]1O[C@@H](O[C@@H]2[C@@H](O)[C@H](O[C@@H]3[C@@H](O)[C@H](O[C@@H]4[C@@H](O)[C@H](O[C@@H]5[C@@H](O)[C@H](O[C@@H]6[C@@H](O)[C@H](O[C@@H]7[C@@H](O)[C@H](O)O[C@H](CO)[C@H]7O)O[C@H](CO)[C@H]6O)O[C@H](CO)[C@H]5O)O[C@H](CO)[C@H]4O)O[C@H](CO)[C@H]3O)O[C@H](CO)[C@H]2O)[C@H](O)[C@@H](O)[C@@H]1O [Laminariheptaose] | 1.0 ± 0.1 μmole/min per mg protein | 1.6 ± 0.1 μmole/min per mg protein | 1.2 ± 0.1 μmole/min per mg protein | 13.5 ± 0.4 μmole/min per mg protein
Gentiobiose | – | 0.3 ± 0.02 μmole/min per mg protein | 0.4 ± 0.03 μmole/min per mg protein | 1.2 ± 0.3 μmole/min per mg protein
OC[C@H]1O[C@@H](O[C@H]2[C@H](O)[C@@H](O)[C@H](O[C@H]3[C@H](O)[C@@H](O)[C@H](O[C@H]4[C@H](O)[C@@H](O)[C@H](O[C@H]5[C@H](O)[C@@H](O)C(O)O[C@@H]5CO)O[C@@H]4CO)O[C@@H]3CO)O[C@@H]2CO)[C@H](O)[C@@H](O)[C@@H]1O (stereo partly shown) [Cellopentaose] | – | 0.2 ± 0.01 μmole/min per mg protein | 0.1 ± 0.01 μmole/min per mg protein | 1.7 ± 0.1 μmole/min per mg protein
Cellobiose | – | 0.1 ± 0.01 μmole/min per mg protein | 0.1 ± 0.01 μmole/min per mg protein | 0.4 ± 0.1 μmole/min per mg protein
OC[C@H]1O[C@@H](O[C@@H]2[C@@H](O)[C@H](O[C@@H]3[C@@H](O)[C@H](O[C@@H]4[C@@H](O)[C@H](O[C@@H]5[C@@H](O)[C@H](O[C@H]6[C@H](O)[C@@H](CO)OC(O)[C@@H]6O)O[C@H](CO)[C@H]5O)O[C@H](CO)[C@H]4O)O[C@H](CO)[C@H]3O)O[C@H](CO)[C@H]2O)[C@H](O)[C@@H](O)[C@@H]1O (stereo partly shown) [Laminarihexaose] | 1.0 ± 0.02 μmole/min per mg protein | 1.5 ± 0.1 μmole/min per mg protein | 1.1 ± 0.03 μmole/min per mg protein | 15.8 ± 1.0 μmole/min per mg protein
OC[C@H]1O[C@@H](O[C@@H]2[C@@H](O)[C@H](O[C@@H]3[C@@H](O)[C@H](O[C@@H]4[C@@H](O)[C@H](O[C@@H]5[C@@H](O)[C@H](O)O[C@H](CO)[C@H]5O)O[C@H](CO)[C@H]4O)O[C@H](CO)[C@H]3O)O[C@H](CO)[C@H]2O)[C@H](O)[C@@H](O)[C@@H]1O [Laminaripentaose] | 1.0 ± 0.1 μmole/min per mg protein | 1.5 ± 0.1 μmole/min per mg protein | 1.0 ± 0.01 μmole/min per mg protein | 14.6 ± 0.4 μmole/min per mg protein
OC[C@H]1O[C@@H](O[C@H]2[C@H](O)[C@@H](O)[C@H](O[C@H]3[C@H](O)[C@@H](O)[C@H](O[C@H]4[C@H](O)[C@@H](O)C(O)O[C@@H]4CO)O[C@@H]3CO)O[C@@H]2CO)[C@H](O)[C@@H](O)[C@@H]1O (stereo partly shown) [Cellotetraose] | – | 0.2 ± 0.01 μmole/min per mg protein | 0.1 ± 0.01 μmole/min per mg protein | 1.9 ± 0.1 μmole/min per mg protein
OC[C@H]1O[C@@H](O[C@H]2C(O)O[C@H](CO)[C@@H](O)[C@@H]2O)[C@H](O)[C@@H](O)[C@@H]1O (stereo partly shown) [Sophorose] | – | 0.6 ± 0.1 μmole/min per mg protein | 0.6 ± 0.01 μmole/min per mg protein | 6.6 ± 0.4 μmole/min per mg protein
OC[C@H]1O[C@@H](O[C@H]2[C@H](O)[C@@H](O)[C@H](O[C@H]3[C@H](O)[C@@H](O)[C@H](O[C@H]4[C@H](O)[C@@H](O)[C@H](O[C@H]5[C@H](O)[C@@H](O)[C@H](O[C@H]6[C@H](O)[C@@H](O)C(O)O[C@@H]6CO)O[C@@H]5CO)O[C@@H]4CO)O[C@@H]3CO)O[C@@H]2CO)[C@H](O)[C@@H](O)[C@@H]1O (stereo partly shown) [Cellohexaose] | – | 0.3 ± 0.02 μmole/min per mg protein | 0.1 ± 0.01 μmole/min per mg protein | 1.9 ± 0.1 μmole/min per mg protein
OC[C@H]1O[C@@H](O[C@H]2[C@H](O)[C@@H](O)[C@H](O[C@H]3[C@H](O)[C@@H](O)C(O)O[C@@H]3CO)O[C@@H]2CO)[C@H](O)[C@@H](O)[C@@H]1O (stereo partly shown) [Cellotriose] | – | 0.3 ± 0.03 μmole/min per mg protein | 0.1 ± 0.01 μmole/min per mg protein | 1.2 ± 0.3 μmole/min per mg protein
